Measured values reported in patent publication US7989463B2, “Biccyclic compounds as GATA modulators” (Dr. Reddy's Laboratories Limited, priority 2008, dated 2011).

How the values were obtained:
GATA1 = assay: GATA Assay: GATA Translucent Reporter Vector luciferase assay in transfected HepG2 cells; assay type: cell-based, Human; conditions: luciferase normalized to total protein
Protocol: Human HepG2 (ATCC) cells were grown in Eagle's Minimum Essential Media (MEM) containing 10% heat inactivated Fetal Bovine Serum (FBS) (Invitrogen) and 5 mL Penicillin-Streptomycin (Invitrogen) in T75 flasks (Corning) in a 37° C./5% CO2 tissue culture incubator (Thermo Electron Corporation) prior to the study. 96-well plates (Corning) were seeded in MEM containing 10% FBS to yield ˜50% confluency. The following day, cells were transfected using FuGENE 6 transfection reagent (Roche) and […] GATA Translucent Reporter Vector (Panomics) according the manufacturer's (Roche) protocol and incubated for about 10-19 h. The next day, the cells were treated with equal volumes of vehicle, dimethyl sulfoxide (DMSO) (Hybri-Max Sterile Filtered Sigma Aldrich) or compounds of formula (I) (in DMSO) diluted in MEM containing 1% FBS. The treated cells were incubated about 8-19 h. The next day the treatment media was removed and the cells were lysed and assayed for luciferase activity using the luciferase assay system (Promega) and using the Envision plate reader (Perkin Elmer). The lysates were also used to measure total protein content with the MicroBCA protein assay kit (Pierce) using the Multiskan Ascent plate reader at 570 nm. Luciferase values were normalized to total protein and fold induction was calculated.
Compounds that show an increase of ≧40% in luciferase levels at ≦20 μm concentration were considered as GATA activators.

| Compound | melting point | GATA1 Activation (Fold Change Vs Control) (GATA1; 5μ compound) | GATA1 Activation (Fold Change Vs Control) (GATA1; 10μ compound) |
| --- | --- | --- | --- |
| O=C(O)C1(c2ccc(Nc3nc(N4CCCC4)nc4c3CCC4)cc2)CCC1 [Example 6, 1-[4-(2-pyrrolidin-1-yl-6,7-dihydro-5H-cyclopentapyrimidin-4-ylamino)-phenyl]-cyclobutanecarboxylic acid] | 245 to 247 °C |  |  |
| Cn1cc(-c2nc3c(c(Nc4ccc(C5(C(=O)O)CCC5)cc4)n2)CCC3)cn1 [Example 7, 1-{4-[2-(1-methyl-1H-pyrazol-4-yl)-6,7-dihydro-5H-cyclopentapyrimidin-4-ylamino]-phenyl}-cyclobutanecarboxylic acid] |  | 1.79 Fold Change Vs Control | 2.09 Fold Change Vs Control |
| CC(=O)c1ccc(-c2nc3c(c(Nc4ccc(C5(C(=O)O)CCC5)cc4)n2)CCC3)cc1 [Example 9, 1-{4-[2-(4-acetyl-phenyl)-6,7-dihydro-5H-cyclopentapyrimidin-4-ylamino]-phenyl}-cyclobutanecarboxylic acid] |  | 2.90 Fold Change Vs Control | 3.50 Fold Change Vs Control |
| O=C(O)C1(c2ccc(Nc3nc(N4CCOCC4)nc4c3CCC4)cc2)CCC1 [Example 4, 1-[4-(2-morpholin-4-yl-6,7-dihydro-5H-cyclopentapyrimidin-4-ylamino)-phenyl]-cyclobutanecarboxylic acid] | 279 to 281 °C | 2.45 Fold Change Vs Control | 3.45 Fold Change Vs Control |
| CC(C)(C)Nc1nc(Nc2ccc(C3(C(=O)O)CCCC3)cc2)nc2c1CCC2 [Example 10, 1-[4-(4-tert-butylamino-6,7-dihydro-5H-cyclopentapyrimidin-2-ylamino)-phenyl]-cyclopentanecarboxylic acid] |  | 2.07 Fold Change Vs Control | 2.43 Fold Change Vs Control |
| O=C(O)C1(c2ccc(Nc3nc(N4CCC(O)CC4)nc4c3CCC4)cc2)CCC1 [Example 5, 1-{4-[2-(4-hydroxy-piperidin-1-yl)-6,7-dihydro-5H-cyclopentapyrimidin-4-ylamino]-phenyl}-cyclobutanecarboxylic acid] | 165 to 167 °C |  |  |
| O=C(O)C1(c2ccc(Nc3nc(NC4CCCC4)nc4c3CCC4)cc2)CCC1 [Example 13, 1-[4-(2-cyclopentylamino-6,7-dihydro-5H-cyclopentapyrimidin-4-ylamino)-phenyl]-cyclobutanecarboxylic acid] |  | 1.94 Fold Change Vs Control | 1.67 Fold Change Vs Control |
| O=C(O)C1(c2ccc(Nc3nc(C4CCCC4)nc4c3CCC4)cc2)CCCC1 [Example 1, 1-[4-(2-cyclopentyl-6,7-dihydro-5H-cyclopentapyrimidin-4-ylamino)-phenyl]-cyclopentanecarboxylic acid] | 321 to 325 °C |  |  |
| O=C(O)C1(c2ccc(Nc3nc(Nc4cccc(F)c4)nc4c3CCC4)cc2)CCC1 [Example 12, 1-{4-[2-(3-fluoro-phenylamino)-6,7-dihydro-5H-cyclopentapyrimidin-4-ylamino]-phenyl}-cyclobutanecarboxylic acid] |  | 3.22 Fold Change Vs Control | 3.38 Fold Change Vs Control |
